# Assay results from US4520014A (priority 1979, dated 1985).
# Where a name gives a salt, the structure may show the parent alone. Read-outs that look alike come from different tables or passages of the source.
# Columns and labels:
# [1] = system: fluid secretion caused by the enterotoxin(s) present in the culture filtrate (enteropathogenic strain of E. coli); assay: animal or person; type: in vivo, Mice
# E. coli P155 = type: in vivo, Piglets; conditions: n = 14
# [2] = system: diarrhoea caused by culture filtrate prepared from an enteropathogenic strain of E. coli; assay: Piglet test: inhibition of scour after oral challenge with E. coli culture filtrate; type: in vivo, Piglets; conditions: scour score over 7 h, hydrochloride salt
# Protocol: 2-4 Day old piglets are dosed with the compound orally 45 min prior to oral challenge with 25 ml of culture filtrate prepared from an enteropathogenic strain of E. coli. Control animals receive drug vehicle 45 min prior to challenge with a similar volume of material. Animals are observed for diarrhoea over a 7 hour period and the severity of scour scored on a 0-3 basis for each animal at hourly intervals. The percentage inhibition in treated animals is determined as: [formula]
# [3] = system: fluid secretion caused by material prepared by cell lysis of an enteropathogenic strain of E. coli; assay: Infant rabbit test: inhibition of fluid secretion after oral challenge with E. coli cell lysis material; type: in vivo, Rabbits; conditions: for % Fluid Inhibition: Rabbit, hydrochloride salt
# Protocol: Infant rabbits 7-10 days old are dosed with the compound under investigation orally 45 min prior to oral challenge with 50 ml/kg bodyweight of material prepared by cell lysis of an enteropathogenic strain of E. coli. Control animals receive drug vehicle 45 mins prior to challenge with a similar volume of material. 5-7 Hours after oral administration of the challenge the animals are killed and gut weight/remaining bodyweight ratios calculated and the percentage fluid inhibition determined as above.
# [4] = system: intestinal secretion induced by cholera toxin; conditions: alleged in G. N. Mir et al. (1978); cited from earlier work
# [5] = Mus musculus, po, 2 h; read-out: % Fluid Inhibition
# [6] = 10 mg/kg oral, 45 min before challenge
structure (smiles),measurement,setting,value
Cc1ccc2ccccc2c1CC1=NCCN1 [2-Methyl Naphazoline],inhibition in vivo at 20 mg/kg,"[1]; Mus musculus, po, 2 h",82%
CC1(C)S[C@@H]2[C@H](NC(=O)[C@H](N)c3ccc(O)cc3)C(=O)N2[C@H]1C(=O)O [Amoxycillin],Mean scour score ± S.E.M. (during 6 hrs after treatment),E. coli P155,2.0 ± 0.2
"N=C(N)NC(=O)Cc1c(Cl)cccc1Cl [BS 100-141, 2,6-dichlorophenylacetylguanidine hydrochloride]",% Fluid Inhibition,[2]; 1 mg/kg oral,76%
same,inhibition in vivo at 1 mg/kg,[1]; [5],45%
Clc1cccc(Cl)c1NC1=NCCN1 [Clonidine],% Fluid Inhibition,[3]; 5 mg/kg oral,26%
same,% Fluid Inhibition,[2]; 0.2 mg/kg oral,64%
same,inhibition in vivo at 1 mg/kg,"[1]; Mus musculus, po, 2 h, read-out: % Fluid Inhibition",42%
CNC(=N)NC(=O)Nc1c(C)cccc1C [Lidamidine],inhibition of intestinal secretion induced by cholera toxin,[4],inhibited intestinal secretion induced by cholera toxin
same,% Fluid Inhibition,[3]; 50 mg/kg oral,-7%
same,activity in the rabbit test,[3]; in words,inactive
same,inhibition in vivo at 50 mg/kg,"[1]; Mus musculus, po, 2 h",33%
same,activity relative to the Compounds in the mouse test,"[1]; mouse, in vivo",at least five times less active than the Compounds
c1ccc2c(CC3=NCCN3)cccc2c1 [Naphazoline],% Fluid Inhibition,[3]; [6],32%
same,% Fluid Inhibition,[2]; [6],88%
same,inhibition in vivo at 10 mg/kg,"[1]; Mus musculus, po, 2 h",59%
Cc1cc(C(C)(C)C)c(O)c(C)c1CC1=NCCN1 [Oxymetazoline],inhibition in vivo at 0.1 mg/kg,"[1]; Mus musculus, po, 2 h",78%
CCc1cccc(CC)c1NC1=NCCN1 [ST91],inhibition in vivo at 5 mg/kg,"[1]; Mus musculus, po, 2 h",56%
same,inhibition in vivo at 1 mg/kg,[1]; [5],22%
c1cc2c(c(NC3=NCCN3)c1)CCCC2 [Tramazoline],inhibition in vivo at 10 mg/kg,"[1]; Mus musculus, po, 2 h",44%
Cc1cc(C(C)(C)C)cc(C)c1CC1=NCCN1 [Xylometazoline],% Fluid Inhibition,[3]; 20 mg/kg oral,119%
same,% Fluid Inhibition,[2]; 2 mg/kg oral,44%
same,inhibition in vivo at 8.25 mg/kg,"[1]; Mus musculus, po, 2 h",44%
